Patent US20080207578A1, “METHOD OF INDUCING APOPTOSIS IN CANCER TREATMENT BY USING CUCURBITACINS” (priority 2006, published 2008)

How the values were obtained:
[1] = system: human cancer cell lines (18 selected from the 59-NCI panel); assay: Annexin V-FITC/propidium iodine flow cytometric apoptosis assay, 18 selected cell lines; format: cell-based; settings: 48 hours; for cell lines in which apoptosis was induced: GI50, 1/2 GI50 and 1/4 GI50 of particular cell line; for dose dependence of apoptosis induction (in words): three concentrations
Experimental: Human cancer cell lines from the 59-NCI Cancer Cell Line Panel including leukemia, melanoma and cancers of breast, brain, colon, lung, ovary, prostate and kidney were purchased from the National Institute of Cancer. […] They were treated with cucurbitacin B and cucurbitacin D at three different concentrations to elucidate their ability to induce any changes in cell cycle.
Cancer cell lines were maintained in RPMI 1640 supplemented with 5% Fetal Bovine Serum, 2 mM L-glutamine and 1% Penicillin/Streptomycin at 37° C. with 5% CO2. All chemicals were purchased from Sigma unless specified otherwise.
Cells were inoculated into tissue culture flask at cell concentrations from 50000 to 400,000 cells/ml according to the NCl guideline. The cells were incubated at 37° C. with 5% CO2 for 24 hours. Cucurbitacin B and cucurbitacin D were added to the cells of final concentrations ranging from 6 to 350 nM (GI50, ½ GI50 and ¼ GI50 of particular cell line) for 48 hours at 37° C. with 5% CO2. Cells ([…]) were then harvested and stained with 5 μl Annexin V-FITC and 10 μl propidium iodine (Becton Dickinson, Calif., USA) for 15 minutes at room temperature. Ten thousands events were collected by the FACScaliber and the percentage of different cell populations were analyzed by the CellQuest™ software (Becton Dickinson).

[2] = system: PARP in HL 60 human leukemia cells; assay: Western blot of PARP cleavage in HL60 cells; format: cell-based
Experimental: (§1) Control cells, as well as cells treated with cucurbitacin B or cucurbitacin D, were harvested and collected by centrifugation. Whole cell extracts were then prepared by lysing the cells using 4% sodium dodecyl sulfate (SDS) gel sample buffer. Cell extracts were boiled for 10 min and chilled on ice, subjected to 12% SDS-polyacrylamide gel electrophoresis, and transferred to a PVDF membrane. Each membrane was cut into to two pieces with one piece incubated at 4^˜ overnight with antibodies against cell cycle signaling proteins, such as ERK, phosphorlated-ERK, p38, phosphorlated-p38, Cyclin E, Retinoblastoma, phosphalated-Retinoblastoma and c-myc, and apoptotic protein (PARP). β-actin was used as a control for protein loading. All antibodies were obtained from Cell signaling Technologies (USA). Then membranes were incubated at 37^˜ for 1 h with secondary antibody conjugated with peroxidase, and the signal was detected using chemiluminescence detection reagent. The relative protein level was calculated as the ratio of the optical density of the protein of interest to that of β-actin.

[3] = system: 59 human cancer cell lines; assay: Sulforhodamine B (SRB) growth inhibition assay, 59-NCI Cancer Cell Line Panel; format: cell-based; settings: 0.488 to 4000 nM, 48 hours
Text: (§2) Human cancer cell lines from the 59-NCl Cancer Cell Line Panel including leukemia, melanoma and cancers of breast, brain, colon, lung, ovary, prostate and kidney, were purchased from the National Institute of Cancer (USA). The growth inhibition (GI50) of these cell lines treated with cucurbitacin B and cucurbitacin D in various concentrations was investigated.
(§3) 59 human cancer cell lines were maintained in RPMI 1640 (Invitrogen Life Technologies, Calif., USA) supplemented with 5% Fetal Bovine Serum, 2 mM L-glutamine and 1% Penicillin/Streptomycin (Invitrogen Life Technologies) at 37° C. with 5% CO2. All chemicals were purchased from Sigma (St. Louis, Mo., USA) unless specified otherwise.
(§4) Sulforhodamine B (SRB) assay was applied to determine the cytostatic effect of cucurbitacin B and cucurbitacin D. SRB is a dye which binds to cellular proteins and will be dissolved in base. The biomass of total protein can be measured at 520 nm using a plate reader.
(§5) Cells were inoculated into 96-well microtiter plates including “Time zero” (Tz) plates in 100 μl at cell concentrations from 5000 to 40,000 cells per well according to NCI guideline. The cells were incubated at 37° C. with 5% CO2 for 24 hours. […] Bound SRB was solubilized with 100-200 ul per well of 10 mM trizma base and absorbance was measured at a wavelength of 520 nm. The percentage of growth inhibition was calculated as follows: […]

[4] = system: prostate cancer cell lines; assay: SRB growth inhibition assay, prostate cancer group; format: cell-based, human; settings: most sensitive type to cucurbitacin B, 48 hours
Text: as §2, §3, §4, §5

[5] = system: human cancer cell lines (18 selected from the 59-NCI panel); assay: Cell cycle analysis by PI flow cytometry, 18 selected cell lines; format: cell-based; settings: GI50, 1/2 GI50 and 1/4 GI50 of particular cell line, 48 hours
[6] = system: phosphorylated-ERK, cyclin E, phosphorylated-Rb, c-myc in HL60 cells; assay: Western blot of MAPK / cell cycle signaling proteins in HL60 cells; format: cell-based, human
Experimental: as §1

[7] = system: HL60 (TB) leukemia cell line; assay: Cell cycle analysis by PI flow cytometry, HL60 (TB); format: cell-based, human; settings: 48 hours
[8] = system: melanoma cell lines; assay: SRB growth inhibition assay, melanoma group; format: cell-based, human; settings: most sensitive type to cucurbitacin D, 48 hours
Text: as §2, §3, §4, §5

[9] = system: SF-295 CNS cell line; assay: Cell cycle analysis by PI flow cytometry, SF-295; format: cell-based, human; settings: SF-295, 48 hours

| Compound | cell lines in which apoptosis was induced [1] | dose dependence of apoptosis induction (in words) [1] | PARP (apoptosis marker) in western blot (in words) [2] | growth inhibition of 59 cancer cell lines (in words) [3] | GI50 [4] [nM] | cell lines arrested in G2/M [5] | ERK (in words) [6] | c-myc (in words) [6] | cyclin E (in words) [6] | retinoblastoma phosphorylation (in words) [6] | effect on cell cycle (in words) [7] | GI50 [8] [nM] | effect on cell cycle (in words) [9] |
| --- | --- | --- | --- | --- | --- | --- | --- | --- | --- | --- | --- | --- | --- |
| CC(=O)OC(C)(C)/C=C/C(=O)[C@](C)(O)[C@H]1[C@H](O)C[C@@]2(C)[C@@H]3CC=C4[C@H](C[C@H](O)C(=O)C4(C)C)[C@]3(C)C(=O)C[C@]12C [cucurbitacin B] | 9 out of 18 | induced apoptosis in a dose-dependent manner | cleavage of PARP | inhibited the growth of 59 cancer cell lines dose-dependently | 17 | 6 out of 18 | ERK activation | down-regulation of c-myc | cyclin E down-regulation | inhibition of retinoblastoma's phosphorylation | G2/M arrest and endoreduplication | – | – |
| CC(C)(O)/C=C/C(=O)[C@](C)(O)[C@H]1[C@H](O)C[C@@]2(C)[C@@H]3CC=C4[C@@H](C[C@H](O)C(=O)C4(C)C)[C@]3(C)C(=O)C[C@]12C [cucurbitacin D] | 11 out of 18 | induced apoptosis in a dose-dependent manner | cleavage of PARP | inhibited the growth of 59 cancer cell lines dose-dependently | – | 9 out of 18 | ERK activation | down-regulation of c-myc | cyclin E down-regulation | inhibition of retinoblastoma's phosphorylation | – | 60 | G2/M arrest and endoreduplication |
